The text below walks through data of patent publication US20240327418A1, “MULTI-TARGET INHIBITOR TARGETING HDAC AND NAD SYNTHESIS AND USE OF MULTI-TARGET INHIBITOR” (OCEAN UNIVERSITY OF CHINA, priority 2021, published 2024).

The target of one series is HDAC1 (Homo sapiens (Human), UniProt Q13547). In words: Inhibitory activity on HDAC1 (fluorescence enzyme assay). The settings on record: read-out: IC50 HDAC1; mean of three independent experiments.
Series [1] has as its system leukemia cell line KASUMI-1. Briefly: GI50 and LC50 by NCI method, KASUMI-1. In kind it is cell-based. The note with it: Homo sapiens, 48 hours, Cell Titer-Blue. As to the method: (§1) The median growth inhibitory concentration (GI50) and median lethal concentration (LC50) were determined by NCI method. Leukemia cell strains MV4-11, HL60, PL21, KASUMI-1, MONO-MAC-1 and NB-4 were cultured in an Iscove's Modified Dulbecco Medium (IMDM) containing 10% fetal bovine serum, were inoculated into a 96-well cell culture plate at a density of 10,000 cells/100 μL and cultured overnight. 6 wells were selected as Tz wells, 0.125 mg/mL Cell Titer-Blue dye was added, and the cells were cultured for 4 hours and then the fluorescence intensity at […] (excitation wavelength/emission wavelength) was read. Compounds of different concentrations were added to the remaining wells, and a 100% control group was set. After 48 hours of cultivation, 0.125 mg/mL Cell Titer-Blue dye was added and the fluorescence intensity at […] was read after 4 hours. The fluorescence intensity of the dosing group was represented by Ti, the fluorescence intensity of the 100% control group was represented by C, and the fluorescence intensity before dosing was represented by Tz.
(§2) If Ti≥Tz, the formula [(Ti−Tz)/(C−Tz)]×100 was used.
(§3) If Ti<Tz, the formula [(Ti−Tz)/Tz]×100 was used.
(§4) The GI50 and LC50 values of some compounds on leukemia cell strains MV4-11, HL60, PL21, KASUMI-1, MONO-MAC-1 and NB-4 are shown in FIG. 1, Table 3, FIG. 2, and Table 4.
(In general: Resazurin is reduced to fluorescent resorufin, in cell work by metabolically active cells.)

Series [2] deals with leukemia cell line MONO-MAC-1. Briefly: GI50 and LC50 by NCI method, MONO-MAC-1. In kind it is cell-based. The settings on record: 48 hours, Cell Titer-Blue. On the procedure: as §1, §2, §3, §4
A further series concerns leukemia cell line PL21. In words: GI50 and LC50 by NCI method, PL21. The settings on record: PL-21; 48 hours, Cell Titer-Blue. Format: cell-based. As to the method: as §1, §2, §3, §4
Series [3] can be described thus: Pharmacokinetic properties in mice. Format: in vivo. The note with it: for F: po 20 mg/kg vs iv 5 mg/kg.
In another series the target is HDAC2 (Homo sapiens (Human), UniProt Q92769). In words: Inhibitory activity on HDAC2 (fluorescence enzyme assay). The settings on record: read-out: IC50 HDAC2; mean of three independent experiments.
A further series concerns leukemia cell line NB-4. Briefly: GI50 and LC50 by NCI method, NB-4. Format: cell-based. The note with it: 48 hours, Cell Titer-Blue; for GI50: read-out: NB4 GI50; for LC50 (median lethal concentration): read-out: NB4 LC50. On the procedure:
as §1, §2, §3, §4

Series [4] relates to acute myelogenous leukemia cells MV4-11. Briefly: GI50 and LC50 by NCI method, MV4-11. Format: cell-based. The settings on record: Homo sapiens, 48 hours, Cell Titer-Blue. As to the method: as §1, §2, §3, §4
The next series concerns the target HDAC3 (Homo sapiens (Human), UniProt O15379). In words: Inhibitory activity on HDAC3 (fluorescence enzyme assay). The settings on record: read-out: IC50 HDAC3; mean of three independent experiments.
The test system of series [5] is acute myelogenous leukemia cells HL60. In words: GI50 and LC50 by NCI method, HL60. The settings on record: Homo sapiens, HL-60; 48 hours, Cell Titer-Blue. Format: cell-based. As to the method:
as §1, §2, §3, §4

The test system of the next series is MV4-11 tumor. Briefly: In vivo anti-leukemia activity, MV4-11 tumor bearing model. The settings on record: MV4-11 tumor bearing nude mice; 4 mg/kg/d, day 23; panobinostat intraperitoneal.
A further series deals with NAMPT (Homo sapiens (Human), UniProt P43490). Briefly: Inhibitory activity on NAMPT. In kind it is biochemical. The settings on record: mean of three independent experiments.
Setting [6] is: mouse, plasma, po 20 mg/kg single dose.

Where two headings read alike, the source gives them in different places.

Chain of HDAC1 (Q13547 whole entry, species assumed): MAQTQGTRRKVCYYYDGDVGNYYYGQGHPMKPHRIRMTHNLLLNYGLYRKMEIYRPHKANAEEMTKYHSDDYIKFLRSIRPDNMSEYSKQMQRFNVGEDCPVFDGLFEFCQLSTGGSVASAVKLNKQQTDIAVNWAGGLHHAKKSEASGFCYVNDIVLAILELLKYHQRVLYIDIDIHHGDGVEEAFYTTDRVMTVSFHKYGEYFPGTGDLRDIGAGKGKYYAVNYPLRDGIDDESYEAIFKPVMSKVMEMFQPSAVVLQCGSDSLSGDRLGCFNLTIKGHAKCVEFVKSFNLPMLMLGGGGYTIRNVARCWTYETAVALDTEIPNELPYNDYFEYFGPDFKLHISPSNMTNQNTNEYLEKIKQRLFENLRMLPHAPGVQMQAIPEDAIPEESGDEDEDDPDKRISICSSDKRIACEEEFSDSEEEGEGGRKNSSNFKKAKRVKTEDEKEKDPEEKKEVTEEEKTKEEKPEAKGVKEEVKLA
Chain of HDAC2 (Q92769 whole entry, species assumed): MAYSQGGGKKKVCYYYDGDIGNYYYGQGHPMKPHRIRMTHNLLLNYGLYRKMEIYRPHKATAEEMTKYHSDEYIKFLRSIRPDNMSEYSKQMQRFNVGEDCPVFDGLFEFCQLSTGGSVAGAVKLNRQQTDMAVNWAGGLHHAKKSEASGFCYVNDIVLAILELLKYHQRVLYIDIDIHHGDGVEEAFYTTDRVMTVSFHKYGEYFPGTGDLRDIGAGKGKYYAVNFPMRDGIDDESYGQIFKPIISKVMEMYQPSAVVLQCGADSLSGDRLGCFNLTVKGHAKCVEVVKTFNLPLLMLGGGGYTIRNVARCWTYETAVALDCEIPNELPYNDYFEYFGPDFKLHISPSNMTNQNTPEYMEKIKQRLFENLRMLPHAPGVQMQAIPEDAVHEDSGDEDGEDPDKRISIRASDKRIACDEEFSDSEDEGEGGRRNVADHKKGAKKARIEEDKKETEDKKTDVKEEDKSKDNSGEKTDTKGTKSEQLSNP
Chain of HDAC3 (O15379 whole entry, species assumed): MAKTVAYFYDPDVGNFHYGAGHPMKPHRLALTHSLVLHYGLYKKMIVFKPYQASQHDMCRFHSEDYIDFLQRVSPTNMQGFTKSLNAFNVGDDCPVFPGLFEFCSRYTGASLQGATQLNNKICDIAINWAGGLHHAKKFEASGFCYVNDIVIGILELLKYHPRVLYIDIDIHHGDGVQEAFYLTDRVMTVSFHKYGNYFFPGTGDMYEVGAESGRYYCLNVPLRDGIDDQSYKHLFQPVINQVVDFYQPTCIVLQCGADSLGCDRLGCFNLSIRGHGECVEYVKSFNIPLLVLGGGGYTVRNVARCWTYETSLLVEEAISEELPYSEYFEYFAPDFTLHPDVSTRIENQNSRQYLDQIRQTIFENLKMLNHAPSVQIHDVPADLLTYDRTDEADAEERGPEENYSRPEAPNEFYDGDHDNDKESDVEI
Chain of HDAC3 (Q9Y618 395-489 partner, species assumed): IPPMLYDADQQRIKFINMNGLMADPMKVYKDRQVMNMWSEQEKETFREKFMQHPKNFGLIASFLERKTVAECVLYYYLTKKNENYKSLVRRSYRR
Chain of NAMPT (P43490 whole entry, species assumed): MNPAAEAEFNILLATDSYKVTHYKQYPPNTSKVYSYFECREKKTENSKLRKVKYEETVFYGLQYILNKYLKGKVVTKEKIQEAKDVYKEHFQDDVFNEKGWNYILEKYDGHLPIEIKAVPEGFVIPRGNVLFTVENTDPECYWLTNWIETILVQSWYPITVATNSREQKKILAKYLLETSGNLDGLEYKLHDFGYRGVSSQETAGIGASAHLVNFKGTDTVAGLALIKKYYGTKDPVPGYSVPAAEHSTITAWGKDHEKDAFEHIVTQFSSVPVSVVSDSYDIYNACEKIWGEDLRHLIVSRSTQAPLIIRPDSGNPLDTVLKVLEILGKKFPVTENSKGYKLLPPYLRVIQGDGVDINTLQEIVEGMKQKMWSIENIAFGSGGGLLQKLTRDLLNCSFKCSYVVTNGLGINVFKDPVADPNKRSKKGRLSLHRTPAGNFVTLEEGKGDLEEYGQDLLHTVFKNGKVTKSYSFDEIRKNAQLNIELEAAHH

Take `CCCNNC(=O)c1ccc(CNC(=O)c2cc3ccccc3[nH]2)cc1` [LEE15, N-(4-(2-propylhydrazino-1-carbonyl)benzyl)-1H-indole-2-carboxyamide]: the IC50 at HDAC1 worked out at 3.52 nM; at HDAC2, 15.1 nM; on HDAC3, 0.383 nM. Also, the GI50 in series [1] came to 17.5 nM; in series [2] it was 17.9 nM; with leukemia cell line PL21, 65.5 nM; in the series on leukemia cell line NB-4, 31.9 nM; in series [4], 37.2 nM; in series [5], 69.5 nM. The LC50 in [1] came out at 8410 nM. Moreover, the CC50 in series [2] and in series [5] was over 10000 nM each time. The LC50 (median lethal concentration) in the series on leukemia cell line PL21 was over 10000 nM; in the series with leukemia cell line NB-4, over 10000 nM; in [4], 58.1 nM. This compound also yielded an AUC(0-t) in [3] (setting [6]) of 128 µg·h/mL. In series [3] (setting [6]), the Tmax was 15 min. In series [3] (po 20 mg/kg single dose), this compound had a peak concentration (Cmax) of 38800 ng/mL. Also, the t½ in [3] (po 20 mg/kg single dose) came out at 155 min. The compound further displayed a F in series [3] of 112%. Moreover, the “Relative tumor proliferation rate (T/C %)” value in the series on MV4-11 tumor worked out at 22.4%. In the series on MV4-11 tumor, the “Tumor inhibitory rate (TGI %)” value is given as 81.3%.
Take `CCCNNC(=O)c1ccc(CNC(=O)/C=C/c2ccccc2)cc1` [Comparative example 1 LP411/3b, reference compound]: the IC50 was 11.8 nM at HDAC1, 95.5 nM on HDAC2 and over 20000 nM at NAMPT. The GI50 was 17.8 nM in series [1]; 16.3 nM in series [2]; 523 nM in the series on leukemia cell line PL21; 19.5 nM in the series with leukemia cell line NB-4; 66 nM in series [4]; 121 nM in series [5]. Besides, the CC50 in series [2] and in series [5] was over 10000 nM throughout.
Regarding `CCCNNC(=O)c1ccc(CNC(=O)c2cc3ccccc3o2)cc1` [LEE16, N-(4-(2-propylhydrazino-1-carbonyl)benzyl)benzofuran-2-carboxyamide], the half-maximal inhibitory concentration (IC50) at HDAC1 amounted to 3.01 nM; at HDAC2, 18.5 nM; at HDAC3 it was 0.435 nM. In addition, the 50% growth inhibitory concentration (GI50) in series [1] turned out to be 15.3 nM; in series [2], 25.3 nM; with leukemia cell line PL21, 34.3 nM; with leukemia cell line NB-4, 42.3 nM; in [4], 30 nM; in series [5], 75.2 nM. The compound further showed an LC50 in [1] of 5360 nM. Besides, the CC50 in series [2] and in series [5] was over 10000 nM throughout. Moreover, the LC50 (median lethal concentration) was over 10000 nM in the series with leukemia cell line PL21, over 10000 nM in the series on leukemia cell line NB-4 and 57.8 nM in series [4]. In series [3] (setting [6]), this compound gave an AUC(0-t) of 129 µg·h/mL. Moreover, the Tmax in [3] (setting [6]) was 30 min. For the same compound, the Cmax in [3] (mouse, plasma, po 20 mg/kg single dose, read-out: Cmax) is 34400 ng/mL. For the same compound, the half-life in series [3] (mouse, plasma, po 20 mg/kg single dose, read-out: t½ (converted)) was 362 min. The compound also came in with a F in series [3] of 111%. In addition, the “Relative tumor proliferation rate (T/C %)” value in the series with MV4-11 tumor is 25.4%. Moreover, in the series on MV4-11 tumor, the “Tumor inhibitory rate (TGI %)” value turned out to be 78.4%.

In general, IC50 refers to the concentration that gives 50% inhibition. For orientation: GI50 means the concentration that inhibits growth by half. As usually defined, the LC50 is the concentration that kills 50% of the test population. A high value points to lower toxicity. Broadly, the CC50 is the concentration that lowers cell viability or growth by half. As usually defined, the AUC(0-t) is exposure summed from dosing to a finite time, without extrapolation to infinity. A high value points to high exposure. For orientation: Tmax means the time at which the peak concentration occurs. The Cmax is the peak of the concentration-time curve. Usually t½ stands for the time in which the quantity being followed falls by half. Read a low t½ as rapid decline.
